Results as given in publication PMC7468108 (Communications Biology, 2020).

Key:
Aβ42 = target: T1, Aβ42 (Homo sapiens, UniProt P05067); assay: ThT-binding assay, inhibition of Aβ42 aggregation; type: biochemical; conditions: any molar ratio (5:1, 1:1, 1:5)
T1 construct: purchased rPeptide (USA)
Protocol: ThT is known to intercalate within the amyloid fibrils resulting in fluorescence emission proportionate to the amyloid growth.
(§1) The resulting thin films were dissolved in PBS (100 mM, pH 7.4) and sonicated for 5 min to get a stock concentration of 50 µM, which immediately diluted to required concentration for an experiment. Stock solutions of ThT (4 mM in PBS) and hybrid molecules (10 mM in PBS) were prepared. All the stock solutions were diluted according to the requirement.
The experiment was performed according to the previous report. […] […] Excitation and emission wavelengths were set at 440 nm and 485 nm, respectively.

hIAPP = target: T2, hIAPP (Homo sapiens, UniProt P10997); assay: ThT-binding assay, inhibition of hIAPP aggregation; type: biochemical; conditions: molar ratios 5:1, 1:1, 1:5
T2 construct: hIAPP is a 37-amino acid neuroendocrine peptide hormone; purchased Peptide 2.0 (USA)
T2 sequence (P10997 34-70 limits assumed): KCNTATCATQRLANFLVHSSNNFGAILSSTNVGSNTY
Protocol: A similar inhibitory effect by the hybrid molecules was found toward hIAPP aggregation. […] Upon co-incubation of hIAPP with the hybrid molecules, a dose-response inhibition of hIAPP fibril formation was observed (Fig. 2d, e and Supplementary Fig. 3). […] Also, for IAPP, the marginally stronger inhibitory effect of WGalNAc was statistically significant (Supplementary Fig. 2b).
as §1
The experiment was performed according to the previous report. […] Kinetics fluorescence data were collected at 37 °C in triplicate using Infinite M200 microplate reader (Tecan, Switzerland), with measurements acquired at 15 min intervals. Excitation and emission wavelengths were set at 440 nm and 485 nm, respectively.

T1 sequence (P05067 672-713 limits assumed): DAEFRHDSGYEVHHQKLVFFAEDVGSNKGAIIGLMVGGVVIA

| SMILES | inhibition of Aβ42 fibril formation (ThT), in words (Aβ42) | inhibition of hIAPP fibril formation (ThT), in words (hIAPP) |
| --- | --- | --- |
| N[C@@H](Cc1c[nH]c2ccccc12)C(=O)O [tryptophan] | no inhibition effect | No inhibitory effect |
| N[C@@H]1O[C@H](CO)[C@H](O)[C@H](O)[C@H]1O [galactosylamine, 1-amino-1-deoxy-β-D-galactose] | no inhibition effect | No inhibitory effect |
